Results taken from PubChem BioAssay AID192 (DTP/NCI, 2004).
Where “and” joins values, the source holds several entries; their conditions need not be identical. Identical values can stand only once. Inconclusive results and toxic doses are left out.

Tested on: BDF1 mice, B16 melanoma ip, median survival T/C
Test: NCI In Vivo Anticancer Drug Screen. Data for tumor model B16 Melanoma (intraperitoneal) in B6D2F1 (BDF1) mice
Settings: endpoint: median survival time, higher = longer survival
In short: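 Each result divides a survival or tumor-size measurement in the compound-treated group by the same measurement in the vehicle group.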

[1] = dose: 100.0 mg/kg/injection, schedule: Q01DX009 (ip), vehicle: Klucel (hydroxypropylcellulose) (HPC)
[2] = dose: 100.0 mg/kg/injection, schedule: Q04DX003 (ip), vehicle: Klucel (hydroxypropylcellulose) (HPC)
[3] = dose: 200.0 mg/kg/injection, schedule: Q01DX009 (ip), vehicle: Klucel (hydroxypropylcellulose) (HPC)
[4] = dose: 200.0 mg/kg/injection, schedule: Q04DX003 (ip), vehicle: Klucel (hydroxypropylcellulose) (HPC)
[5] = dose: 400.0 mg/kg/injection, schedule: Q04DX003 (ip), vehicle: Klucel (hydroxypropylcellulose) (HPC)
[6] = dose: 50.0 mg/kg/injection, schedule: Q01DX009 (ip), vehicle: saline with Tween-80
[7] = dose: 400.0 mg/kg/injection, schedule: Q01DX009 (ip), vehicle: Klucel (hydroxypropylcellulose) (HPC)
[8] = dose: 20.0 mg/kg/injection, schedule: Q01DX009 (ip), vehicle: saline with Tween-80
[9] = dose: 25.0 mg/kg/injection, schedule: Q01DX009 (ip), vehicle: Klucel (hydroxypropylcellulose) (HPC)

O=C(O)c1ccc2sc3ccccc3c(=O)c2c1
T/C (dose: 75.0 mg/kg/injection, schedule: Q01DX009 (ip), vehicle: Klucel (hydroxypropylcellulose) (HPC)): 100 % of control | T/C (dose: 150.0 mg/kg/injection, schedule: Q01DX009 (ip), vehicle: Klucel (hydroxypropylcellulose) (HPC)): 96 % of control | T/C (dose: 300.0 mg/kg/injection, schedule: Q01DX009 (ip), vehicle: Klucel (hydroxypropylcellulose) (HPC)): 96 % of control

O=NN(CCF)C(=O)N[C@H]1CCCC[C@H]1O
T/C (dose: 3.75 mg/kg/injection, schedule: Q01DX001 (ip), vehicle: saline): 100 % of control | T/C (dose: 7.5 mg/kg/injection, schedule: Q01DX001 (ip), vehicle: saline): 105 % of control | T/C (dose: 15.0 mg/kg/injection, schedule: Q01DX001 (ip), vehicle: saline): 101 % of control | T/C (dose: 60.0 mg/kg/injection, schedule: Q01DX001 (ip), vehicle: saline): 222 % of control

CCCCCCC(=O)CCCC
T/C (dose: 100.0 mg/kg/injection, schedule: Q01DX009 (ip), vehicle: other): 98 % of control | T/C (dose: 200.0 mg/kg/injection, schedule: Q01DX009 (ip), vehicle: other): 100 % of control

Cc1c([C@H](C)[C@@H]2NC[C@@H](C)C[C@H]2O)ccc2c1C[C@H]1[C@H]2CC=C2C[C@@H](O)CC[C@@]21C
T/C (dose: 1.5 mg/kg/injection, schedule: Q01DX009 (ip), vehicle: saline): 97 % of control | T/C (dose: 3.0 mg/kg/injection, schedule: Q01DX009 (ip), vehicle: saline): 104 % of control

CCOC(=O)CC1=CCCCC1
T/C (dose: 70.0 mg/kg/injection, schedule: Q01DX009 (ip), vehicle: Klucel (hydroxypropylcellulose) (HPC)): 100 % of control | T/C (dose: 140.0 mg/kg/injection, schedule: Q01DX009 (ip), vehicle: Klucel (hydroxypropylcellulose) (HPC)): 106 % of control | T/C (dose: 280.0 mg/kg/injection, schedule: Q01DX009 (ip), vehicle: Klucel (hydroxypropylcellulose) (HPC)): 100 % of control

Nc1nc(=S)c2ncn(C3OC(CO)C(O)C3O)c2[nH]1 (stereo not drawn)
T/C (dose: 0.5 mg/kg/injection, schedule: Q01DX009 (ip), vehicle: saline with Tween-80): 109 % of control | T/C (dose: 1.0 mg/kg/injection, schedule: Q01DX009 (ip), vehicle: saline sonified): 106 % of control | T/C (dose: 1.0 mg/kg/injection, schedule: Q01DX009 (ip), vehicle: saline with Tween-80): 122 % of control | T/C (dose: 2.0 mg/kg/injection, schedule: Q01DX009 (ip), vehicle: saline sonified): 102 % of control | T/C (dose: 2.0 mg/kg/injection, schedule: Q01DX009 (ip), vehicle: saline with Tween-80): 113 % of control

CCCCCCC(=O)CCCC(C)CCCC(C)C (stereo not drawn)
T/C [1]: 91 % of control | T/C [2]: 105 % of control | T/C [3]: 88 % of control | T/C [4]: 94 % of control | T/C [5]: 88 % of control

C=CCOCC(O)CN(C)c1ccccc1 (stereo not drawn)
T/C (dose: 25.0 mg/kg/injection, schedule: Q04DX003 (ip), vehicle: Klucel (hydroxypropylcellulose) (HPC)): 92 % of control | T/C (dose: 50.0 mg/kg/injection, schedule: Q04DX003 (ip), vehicle: Klucel (hydroxypropylcellulose) (HPC)): 95 % of control | T/C [2]: 89 % of control and 90 % of control | T/C [5]: 88 % of control

CC(C)c1ccc(C(O)C2CC2)cc1 (stereo not drawn)
T/C [6]: 110 % of control | T/C (dose: 100.0 mg/kg/injection, schedule: Q01DX009 (ip), vehicle: saline with Tween-80): 102 % of control

ClC1=C(Cl)C2(Cl)C(COc3ccc(Cl)cc3)CC1(Cl)C2(Cl)Cl (stereo not drawn)
T/C (dose: 12.5 mg/kg/injection, schedule: Q01DX009 (ip), vehicle: saline with Tween-80): 104 % of control | T/C (dose: 25.0 mg/kg/injection, schedule: Q01DX009 (ip), vehicle: saline with Tween-80): 88 % of control | T/C [6]: 95 % of control

COc1ccc(NC(=O)Oc2ccc(OC)cc2)cc1
T/C [1]: 90 % of control | T/C [3]: 93 % of control | T/C [7]: 93 % of control

CC(=O)/C=C/c1ccc(O)cc1
T/C [1]: 113 % of control | T/C [3]: 116 % of control | T/C [7]: 93 % of control

COc1ccccc1CC(C)N (stereo not drawn)
T/C [8]: 97 % of control | T/C (dose: 40.0 mg/kg/injection, schedule: Q01DX009 (ip), vehicle: saline with Tween-80): 95 % of control

Nc1cc2c(c[n+](CCCCCCCC[n+]3cc4c5ccccc5c(N)cc4c4ccccc43)c3ccccc23)c2ccccc12
T/C (dose: 0.78 mg/kg/injection, schedule: Q01DX009 (ip), vehicle: distilled water + Tween-80): 120 % of control | T/C (dose: 1.25 mg/kg/injection, schedule: Q01DX009 (ip), vehicle: saline with Tween-80): 118 % of control | T/C (dose: 1.56 mg/kg/injection, schedule: Q04DX003 (ip), vehicle: distilled water + Tween-80): 114 % of control | T/C (dose: 2.5 mg/kg/injection, schedule: Q01DX009 (ip), vehicle: saline with Tween-80): 123 % of control | T/C (dose: 2.59 mg/kg/injection, schedule: Q01DX009 (ip), vehicle: distilled water + Tween-80): 156 % of control | T/C (dose: 3.12 mg/kg/injection, schedule: Q04DX003 (ip), vehicle: distilled water + Tween-80): 108 % of control | T/C (dose: 4.32 mg/kg/injection, schedule: Q01DX009 (ip), vehicle: distilled water + Tween-80): 167 % of control | T/C (dose: 6.25 mg/kg/injection, schedule: Q01DX009 (ip), vehicle: distilled water + Tween-80): 162 % of control | T/C (dose: 7.2 mg/kg/injection, schedule: Q01DX009 (ip), vehicle: distilled water + Tween-80): 180 % of control | T/C (dose: 10.0 mg/kg/injection, schedule: Q01DX009 (ip), vehicle: saline with Tween-80): 166 % of control | T/C (dose: 12.0 mg/kg/injection, schedule: Q01DX009 (ip), vehicle: distilled water + Tween-80): 182 % of control | T/C (dose: 12.5 mg/kg/injection, schedule: Q01DX009 (ip), vehicle: distilled water + Tween-80): 88 % of control | T/C [8]: 160 % of control | T/C (dose: 25.0 mg/kg/injection, schedule: Q04DX003 (ip), vehicle: distilled water + Tween-80): 106 % of control

COC1C=COC2(C)Oc3c(C)c(O)c4c(c3C2=O)/C(=N/C2CCC(O)OC2C)C=C(NC(=O)/C(C)=C\C(=O)C2CC2C(O)C(C)C(O)C(C)C(OC(C)=O)C1C)C4=O (stereo not drawn)
T/C (dose: 4.6 mg/kg/injection, schedule: Q01DX009 (ip), vehicle: saline with Tween-80): 98 % of control | T/C (dose: 18.5 mg/kg/injection, schedule: Q01DX009 (ip), vehicle: saline with Tween-80): 97 % of control

O=C1c2ccccc2C(=O)c2c(NCCN3CCCCC3)ccc(NCCN3CCCCC3)c21
T/C (dose: 16.0 mg/kg/injection, schedule: Q01DX009 (ip), vehicle: acid diluted with saline): 107 % of control

O=C(O)C(O)C(=O)O.[NH-]C1CCCCC1[NH-].[Pt+2]
T/C (dose: 20.0 mg/kg/injection, schedule: Q01DX009 (ip), vehicle: other): 161 % of control | T/C (dose: 40.0 mg/kg/injection, schedule: Q01DX009 (ip), vehicle: other): 150 % of control

N#CC(CC(=O)c1ccc2c(c1)OCO2)c1ccc2c(c1)OCO2 (stereo not drawn)
T/C [1]: 105 % of control | T/C [3]: 101 % of control | T/C [7]: 94 % of control

F
T/C (dose: 6.25 mg/kg/injection, schedule: Q01DX009 (ip), vehicle: saline): 105 % of control | T/C (dose: 12.5 mg/kg/injection, schedule: Q01DX009 (ip), vehicle: saline): 107 % of control | T/C (dose: 12.5 mg/kg/injection, schedule: Q04DX003 (ip), vehicle: saline): 113 % of control | T/C (dose: 25.0 mg/kg/injection, schedule: Q01DX009 (ip), vehicle: saline): 92 % of control | T/C (dose: 25.0 mg/kg/injection, schedule: Q04DX003 (ip), vehicle: saline): 100 % of control and 124 % of control | T/C (dose: 50.0 mg/kg/injection, schedule: Q04DX003 (ip), vehicle: saline): 94 % of control

Cc1cccc(C)c1NC(=O)NC(C)C
T/C [1]: 87 % of control | T/C [3]: 115 % of control | T/C [7]: 118 % of control

S=P(Nc1ccccc1)(Nc1ccccc1)c1ccccc1
T/C [1]: 104 % of control | T/C [3]: 96 % of control | T/C [7]: 87 % of control

COc1ccc(NC(=S)NNC(=S)NNc2ccccc2)cc1
T/C [2]: 97 % of control | T/C [4]: 93 % of control | T/C [5]: 86 % of control

C=COCCCCCC(C)C
T/C [9]: 97 % of control | T/C (dose: 50.0 mg/kg/injection, schedule: Q01DX009 (ip), vehicle: Klucel (hydroxypropylcellulose) (HPC)): 102 % of control | T/C [1]: 86 % of control and 91 % of control

CCCCCCCCCCC(O)CN1CCN(c2ccc(C)cc2)CC1 (stereo not drawn)
T/C (dose: 12.5 mg/kg/injection, schedule: Q01DX009 (ip), vehicle: Klucel (hydroxypropylcellulose) (HPC)): 92 % of control | T/C [9]: 105 % of control | T/C [3]: 86 % of control

CC(=O)OC1C2(CC3N4C(=O)C5(CO)SSC4(CC31O)C(=O)N5C)OC(C)C(C)(C)C2=O (stereo not drawn)
T/C (dose: 0.08 mg/kg/injection, schedule: Q01DX009 (ip), vehicle: saline with Tween-80): 96 % of control | T/C (dose: 0.16 mg/kg/injection, schedule: Q01DX009 (ip), vehicle: saline with Tween-80): 101 % of control | T/C (dose: 0.3 mg/kg/injection, schedule: Q01DX009 (ip), vehicle: saline with Tween-80): 88 % of control | T/C (dose: 0.6 mg/kg/injection, schedule: Q01DX009 (ip), vehicle: saline with Tween-80): 98 % of control
